Results: patent publication US20040058940A1, “Pharmaceutical formulation comprising thienopyrimidines and antithrombotics, calcium antagonists, prostaglandins or prostaglandin derivatives (2)” (priority 2000, published 2004)

Row | SMILES | melting point [°C]
1 | COc1ccc(CNc2nc(CCC(=O)O)nc3sc4ccccc4c23)cc1Cl [Example 2, 3-[4-(3-chloro-4-methoxybenzylamino)-benzothieno-[2,3-d]-pyrimidin-2-yl]propionic acid] | 218
2 | COC(=O)c1ccc(-c2nc(NCc3ccc(OC)c(Cl)c3)c3c(n2)sc2ccccc23)cc1 [Example 3, methyl 4-[4-(3-chloro-4-methoxybenzylamino)-[1]-benzothieno-[2,3-d]-pyrimidin-2-yl]benzoate] | 203 to 204
